Reference: the supplement of paper PMC10307832

Tests used:
Assay in all cases: relative viability (nuclei count vs DMSO), 5 days (fraction); higher = more cells survive
Sunitinib + Tozasertib = compound: CCN(CC)CCNC(=O)c1c(C)[nH]c(/C=C2\C(=O)Nc3ccc(F)cc32)c1C [Sunitinib] + Cc1cc(Nc2cc(N3CCN(C)CC3)nc(Sc3ccc(NC(=O)C4CC4)cc3)n2)n[nH]1 [Tozasertib] (partner 0.1 µM)
Procedure, shortened: (§1)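 Dosing by pin tool came one day after lung cancer cell lines were seeded in 1536-well plates, using either one drug or a fixed anchor-drug dose plus five library-drug doses (not always all listed) in √10 steps. After 5 days, nuclei were counted on 4× images. Relative viability is treated-well nuclei count divided by vehicle-well nuclei count, and values are medians of duplicate plates.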

Sunitinib + Linsitinib = compound: CCN(CC)CCNC(=O)c1c(C)[nH]c(/C=C2\C(=O)Nc3ccc(F)cc32)c1C [Sunitinib] + C[C@]1(O)C[C@@H](c2nc(-c3ccc4ccc(-c5ccccc5)nc4c3)c3c(N)nccn32)C1 [Linsitinib] (partner 1 µM)
Procedure, shortened: as §1

Sunitinib + OSI-027 = compound: CCN(CC)CCNC(=O)c1c(C)[nH]c(/C=C2\C(=O)Nc3ccc(F)cc32)c1C [Sunitinib] + COc1cccc2cc(-c3nc([C@H]4CC[C@H](C(=O)O)CC4)n4ncnc(N)c34)[nH]c12 [OSI-027] (partner 0.5 µM)
Procedure, shortened: as §1

Sunitinib + Crizotinib = compound: CCN(CC)CCNC(=O)c1c(C)[nH]c(/C=C2\C(=O)Nc3ccc(F)cc32)c1C [Sunitinib] + C[C@@H](Oc1cc(-c2cnn(C3CCNCC3)c2)cnc1N)c1c(Cl)ccc(F)c1Cl [Crizotinib] (partner 1 µM)
Procedure, shortened: as §1

Cell Line	relative viability (Sunitinib + Tozasertib; first compound 0.02 µM)	relative viability (Sunitinib + Tozasertib; first compound 0.06325 µM)	relative viability (Sunitinib + Tozasertib; first compound 0.2 µM)	relative viability (Sunitinib + Tozasertib; first compound 0.6325 µM)	relative viability (Sunitinib + Tozasertib; first compound 2 µM)	relative viability (Sunitinib + Linsitinib; first compound 0.06325 µM)	relative viability (Sunitinib + Linsitinib; first compound 0.2 µM)	relative viability (Sunitinib + Linsitinib; first compound 0.6325 µM)	relative viability (Sunitinib + Linsitinib; first compound 2 µM)	relative viability (Sunitinib + OSI-027; first compound 0.02 µM)	relative viability (Sunitinib + OSI-027; first compound 0.06325 µM)	relative viability (Sunitinib + OSI-027; first compound 0.2 µM)	relative viability (Sunitinib + OSI-027; first compound 0.6325 µM)	relative viability (Sunitinib + OSI-027; first compound 2 µM)	relative viability (Sunitinib + Crizotinib; first compound 0.02 µM)	relative viability (Sunitinib + Crizotinib; first compound 0.06325 µM)	relative viability (Sunitinib + Crizotinib; first compound 0.2 µM)	relative viability (Sunitinib + Crizotinib; first compound 0.6325 µM)	relative viability (Sunitinib + Crizotinib; first compound 2 µM)	relative viability (Sunitinib + Linsitinib; first compound 0.02 µM)
NCI-H647	0.344	0.294	0.262	0.345	0.309	1.23	1.28	0.991	0.969	0.631	0.725	0.562	0.821	0.575	0.988	0.998	1.19	1.15	0.941	
NCI-H1944	0.229	0.283	0.283	0.255	0.258	1.18	1.28	1.25	1.16	0.365	0.437	0.514	0.513	0.409		1.06	1.34	1.24	1.18	1.12
NCI-H3122	0.429	0.475	0.539	0.433	0.567	1.07	1.04	0.992	1.05	0.874		1.06	0.917	0.69	0.273	0.247	0.249	0.241	0.297	1.02
HCC-15	0.407	0.371	0.468	0.411	0.651	0.838	0.928	0.902	0.86	0.608		0.852	0.714	0.641	0.761	0.84	0.958	0.86	0.859	0.803
NCI-H1993	0.527	0.581	0.678	0.605	0.586	0.744		0.8	0.664	0.598	0.482	0.551	0.568	0.554	0.846	0.741	0.872	0.966	0.74	0.711
NCI-H1755	0.561	0.529	0.752	0.593	0.569	0.98		0.979	0.941	0.745	0.821	0.743	0.748	0.761	0.753	0.874	0.89	0.904	0.857	0.996
NCI-H2342	0.396	0.616	0.539	0.56	0.453					0.663	0.657	0.589	0.675	0.703						
COR-L 105	0.365	0.378	0.371	0.401	0.41	0.994	0.839	1.15	1.03	0.626	0.734	0.779	0.987	0.767	0.513	0.811	0.995	0.894	0.695	1.02
SK-LU-1	0.377	0.424	0.433	0.379	0.332	1.09	1.28			0.323	0.387	0.4	0.348	0.199	0.902	0.815	0.969	0.884	0.67	1.29
NCI-H2228	0.23	0.266	0.279	0.207	0.223	0.584	0.841	0.808	0.349	0.523	0.658	0.625	0.529	0.411	0.495	0.553	0.435	0.583	0.351	0.611
NCI-H1395	0.751	0.72	0.696	0.846	0.779	1.2	1.37	1.19		0.648	0.701	0.632	0.739	0.697						0.975
NCI-H1648		0.477	0.482	0.596	0.667						0.24	0.266	0.231	0.294						
NCI-H650	0.697	0.831	0.771	0.801	0.745	0.912	1.09		1.08	0.535	0.553	0.524	0.586	0.514	0.687	0.656	0.738	0.717	0.78	0.9
A549						0.638	0.669	0.716	0.579						0.722	0.816		0.906	0.711	0.563
LC-2-ad	0.479	0.484	0.486	0.502	0.493	0.918	0.89	0.844	0.677		0.844	0.944	0.818	0.614	0.446	0.554	0.452	0.521	0.534	0.839
EMC-BAC-2	0.264	0.297	0.308	0.289	0.332	0.817	0.896	0.865	0.778	0.372	0.41	0.423	0.4	0.502	0.743	0.848	0.821	0.88	0.797	0.769
EBC-1						0.972	1.01	0.993	0.957						0.171	0.178	0.216	0.183	0.19	0.9
NCI-H1975	0.705	0.67	0.717	0.318	0.186	0.969	1.01	0.986	0.868	0.62	0.826	0.805	0.633	0.498	0.885	0.96	1.05	0.954		
NCI-H2405	0.757	0.794	0.811	0.761	0.809	1.02	0.976	1.08	0.917	0.647	0.643	0.631	0.65	0.673	0.803	0.868	0.955	0.862	0.889	
NCI-H23		0.37	0.499	0.341	0.264	0.6	0.605	0.674	0.554	0.57	0.749	0.675	0.803	0.469	0.478	0.477	0.854	0.548	0.527	0.552

Cell Line	relative viability (Sunitinib + Tozasertib; first compound 0.02 µM)	relative viability (Sunitinib + Tozasertib; first compound 0.06325 µM)	relative viability (Sunitinib + Tozasertib; first compound 0.2 µM)	relative viability (Sunitinib + Tozasertib; first compound 0.6325 µM)	relative viability (Sunitinib + Tozasertib; first compound 2 µM)	relative viability (Sunitinib + Linsitinib; first compound 0.06325 µM)	relative viability (Sunitinib + Linsitinib; first compound 0.2 µM)	relative viability (Sunitinib + Linsitinib; first compound 0.6325 µM)	relative viability (Sunitinib + Linsitinib; first compound 2 µM)	relative viability (Sunitinib + OSI-027; first compound 0.02 µM)	relative viability (Sunitinib + OSI-027; first compound 0.06325 µM)	relative viability (Sunitinib + OSI-027; first compound 0.2 µM)	relative viability (Sunitinib + OSI-027; first compound 0.6325 µM)	relative viability (Sunitinib + OSI-027; first compound 2 µM)	relative viability (Sunitinib + Crizotinib; first compound 0.02 µM)	relative viability (Sunitinib + Crizotinib; first compound 0.06325 µM)	relative viability (Sunitinib + Crizotinib; first compound 0.2 µM)	relative viability (Sunitinib + Crizotinib; first compound 0.6325 µM)	relative viability (Sunitinib + Crizotinib; first compound 2 µM)	relative viability (Sunitinib + Linsitinib; first compound 0.02 µM)
LXF-289	0.199	0.182	0.191	0.203	0.269	0.978	1.02	0.988		0.759	0.964	0.863	0.913	0.961	0.771	0.811	0.913	0.8		0.947
NCI-H1437	0.391	0.302	0.408	0.39	0.41	1	1.2		1.02	0.873	0.918		0.855	0.885	0.979	0.959	1.09	0.909	0.899	0.975
NCI-H727	0.603	0.686	0.565	0.658	0.529	0.363	0.239	0.311	0.292	0.717	0.574	0.757	0.687	0.631	0.724	0.832	0.808	0.926	0.738	0.146
RERF-LC-KJ	0.508	0.487	0.547	0.47	0.541	0.869	0.968	1.07	0.855	0.55	0.574	0.689	0.626	0.525	0.802	0.838	0.934	0.786	0.855	0.868
PC-3 [JPC-3]	0.912	0.909	0.954	0.936	0.867	0.975	0.951	0.987	0.881	0.807	0.773	0.743	0.82	0.754	1.03	0.943	1.01	1.02	0.984	0.978
PC-14	0.53	0.589	0.583	0.578	0.523	1.05	1.04	1.02	0.881	0.716	0.893	1.02	0.795	0.695		0.863	1.08	0.921	0.816	
201T	0.918	0.948	1.1		0.88	0.941	1.06	1.09	1.04	0.663	0.778	0.904	0.733	0.654	0.981	0.978	1.03	1.02	1.06	1
SW 1573	0.153	0.22	0.205	0.155	0.195	1	0.917	0.999		0.617	0.938	0.779	0.781	0.671	0.736	0.855		0.976	0.792	0.987
NCI-H441	0.706	0.639	0.652	0.71	0.494	0.491	0.542	0.555	0.612	0.651	0.751	0.898	0.684	0.47	0.686	0.802	0.831	0.858		0.406
NCI-H1355	0.529	0.561	0.601	0.594	0.406	0.859	0.874	0.829	0.813	0.431	0.455	0.441	0.437	0.365	0.982	1.08	1.25	1.1	1.12	0.759
Calu-6						1.08		1.08	0.981						0.711	0.772	0.852	0.932	0.79	0.874
NCI-H2170	0.771	0.961	0.715	0.808	0.838					0.746	0.687	0.802	0.737	0.576	1.11	1.12	1.34	1.14	1.17	
NCI-H1299							1.05	0.998	1.05						0.923	0.965	0.991			0.922
NCI-H1793	0.413	0.34	0.351	0.281	0.214	0.856	1.08	0.838	0.93	0.278	0.245	0.252	0.274	0.194						
NCI-H1703						0.18	0.257	0.174	0.17						0.39	0.206	0.238	0.17	0.225	0.51
NCI-H1792						0.479	0.419	0.511	0.561	0.667	0.716	0.829	0.691	0.481	0.821	1.03	1.22	0.979	1.01	0.556
NCI-H1650	0.323	0.416	0.382	0.321	0.245					0.577	0.65	0.527	0.768	0.513	0.821	0.903	1.14	0.991	0.829	
ChaGo-K-1	0.211	0.209	0.209	0.237	0.191					0.494	0.685	0.577	0.663	0.579	1.06	1.14	1.34	1.22	1.12	
IA-LM						0.719		0.561	0.94						0.779	0.774	0.982	0.926	1.04	0.558
